According to patent US9932331B2, “Phenyl tetrahydroisoquinoline compound substituted with heteroaryl” (TAISHO PHARMACEUTICAL CO., LTD, priority 2014, dated 2018):
Where a name gives a salt, the structure may show the parent alone.

Target: T1, human NHE3 (Homo sapiens, UniProt P48764)
T1 sequence (P48764 26-834): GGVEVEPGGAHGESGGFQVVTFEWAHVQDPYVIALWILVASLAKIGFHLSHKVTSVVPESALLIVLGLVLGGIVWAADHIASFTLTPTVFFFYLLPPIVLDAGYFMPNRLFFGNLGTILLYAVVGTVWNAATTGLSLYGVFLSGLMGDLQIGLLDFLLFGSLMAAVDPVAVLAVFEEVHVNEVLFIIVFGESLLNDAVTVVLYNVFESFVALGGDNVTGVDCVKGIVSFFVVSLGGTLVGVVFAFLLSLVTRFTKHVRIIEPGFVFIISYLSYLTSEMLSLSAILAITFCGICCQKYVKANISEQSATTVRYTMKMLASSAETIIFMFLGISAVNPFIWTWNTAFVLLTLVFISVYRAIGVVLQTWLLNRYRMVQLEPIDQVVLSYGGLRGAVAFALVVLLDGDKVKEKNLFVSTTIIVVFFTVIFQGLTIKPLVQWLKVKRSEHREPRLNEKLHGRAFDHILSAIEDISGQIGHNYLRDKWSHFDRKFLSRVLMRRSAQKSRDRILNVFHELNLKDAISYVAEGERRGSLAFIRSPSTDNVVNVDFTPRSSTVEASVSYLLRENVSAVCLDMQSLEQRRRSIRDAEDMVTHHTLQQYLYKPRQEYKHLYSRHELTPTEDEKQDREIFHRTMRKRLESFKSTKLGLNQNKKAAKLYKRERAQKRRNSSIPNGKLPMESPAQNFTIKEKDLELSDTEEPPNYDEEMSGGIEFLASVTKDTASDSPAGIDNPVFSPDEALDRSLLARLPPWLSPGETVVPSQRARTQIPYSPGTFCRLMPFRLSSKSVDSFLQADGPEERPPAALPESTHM
Assay: NHE3 inhibition test (recovery of intracellular pH in cell line stably expressing human NHE3)
Format: cell-based
Conditions: OK cells deficient in endogenous NHE stably expressing human NHE3; BCECF fluorescence, initial rate of pH recovery; read-out: human NHE3 inhibitory activity IC50
Experimental: (1) Preparation of Cell Line Deficient in Endogenous NHE
The cell line deficient in endogenous NHE was prepared according to the method of Jacques Pouyssegur et al. (Proc. Natl. Acad. Sci. USA. 1984, Vol. 81, 4833-4837) using opossum kidney (OK) cells (ATCC).
(2) Preparation of Expression Plasmid and Cell Line Stably Expressing Human NHE3
The expression plasmid was constructed by inserting a human NHE3 (SLC9A3, Accession No. NM_004174) cDNA sequence (GeneCopoeia, Inc.) into a pcDNA3.2/V5-DEST vector (Life Technologies Corp.).
The OK cells deficient in endogenous NHE were transfected with the constructed human NHE3 expression plasmid to prepare stably expressing cells. The transfection was carried out by electroporation using a Nucleofector 2b device (Lonza Group Ltd.). A stably expressing cell line was selected in medium supplemented with 500 μg/mL Geneticin (Life Technologies Corp.) and isolated.
NHE3 activity measurement method using cell: The activity was determined by using the NHE3-mediated recovery of intracellular pH occurring after intracellular acidification, as an index. The intracellular pH was measured by a partial modification of the pH-sensitive fluorescent indicator method reported by Tsien et al. (Proc. Natl. Acad. Sci. USA., 1984, 81, 7436-7440).
The cell line stably expressing human NHE3 was inoculated on a poly-D-lysine-coated 96-well plate (Greiner Bio-one) and cultured overnight. […] Then, Hank's balanced salt buffer solution containing 0.25 μM BCECF-AM (Dojindo Laboratories) was added to the cells, which were then incubated at 37° C. for 30 minutes. […] The cells thus incubated in the NH4Cl buffer solution were washed with NH4Cl-free buffer solution (133.8 mM choline chloride, […], 5 mM glucose, 4.7 mM KCl, 1.25 mM CaCl2, 1.25 mM MgCl2, 0.97 mM K2HPO4, 0.23 mM KH2PO4, pH 7.4) to decrease the intracellular pH. After the washing step, 70 μL of a test compound solution prepared with the NH4Cl-free buffer solution was added to the cells, and 70 iμL of sodium ion-containing buffer solution (133.8 mM NaCl, 10 mM HEPES, 5 mM glucose, 4.7 mM KCl, 1.25 mM CaCl2, 1.25 mM MgCl2, 0.97 mM Na2HPO4, 0.23 mM NaH2PO4, pH 7.4) was added thereto in a measurement system FDSS6000 (Hamamatsu Photonics K.K.) to start the recovery of pH. The recovery of intracellular pH was monitored using BCECF fluorescence (excitation wavelength: 480 nm, fluorescence wavelength: 520 to 560 nm), and the initial rate of the pH recovery was plotted. The recovery of pH without test compound was defined as the maximum recovery, and the test compound concentration necessary to inhibit 50% of the maximum recovery was calculated as an IC50 value.

Compound	IC50 [nM]
Cc1nnc(-c2cccc([C@@H]3CN(C)Cc4c(Cl)cc(Cl)cc43)c2)[nH]1 [Example 3-1, (4S)-6,8-Dichloro-2-methyl-4-[3-(3-methyl-1H-1,2,4-triazol-5-yl)phenyl]-1,2,3,4-tetrahydroisoquinoline hydrochloride]	49.1
Cc1nc(-c2cccc([C@@H]3CN(C)Cc4c(Cl)cc(Cl)cc43)c2)no1 [Example 4-1, (4S)-6,8-Dichloro-2-methyl-4-[3-(5-methyl-1,2,4-oxadiazol-3-yl)phenyl]-1,2,3,4-tetrahydroisoquinoline hydrochloride]	554
Cc1cc(-c2cccc([C@@H]3CN(C)Cc4c(Cl)cc(Cl)cc43)c2)on1 [Example 5-1, (4S)-6,8-Dichloro-2-methyl-4-[3-(3-methyl-1,2-oxazol-5-yl)phenyl]-1,2,3,4-tetrahydroisoquinoline hydrochloride]	760
CN1Cc2c(Cl)cc(Cl)cc2[C@H](c2cccc(-c3cn(CCOCCOCCNC(=O)NCCCCNC(=O)NCCOCCOCCn4cc(-c5cccc([C@@H]6CN(C)Cc7c(Cl)cc(Cl)cc76)c5)nn4)nn3)c2)C1 [Example 6-1, 1,1′-Butane-1,4-diylbis[3-(2-{2-[2-(4-{3-[(4S)-6,8-dichloro-2-methyl-1,2,3,4-tetrahydroisoquinolin-4-yl]phenyl}-1H-1,2,3-triazol-1-yl)ethoxy]ethoxy}ethyl)urea]]	2.4
CN1Cc2c(Cl)cc(Cl)cc2[C@H](c2cccc(-c3cn(CCOCCOCCNC(=O)CCC(=O)NCCOCCOCCn4cc(-c5cccc([C@@H]6CN(C)Cc7c(Cl)cc(Cl)cc76)c5)nn4)nn3)c2)C1 [Example 6-3, N,N′-Bis(2-{2-[2-(4-{3-[(4S)-6,8-dichloro-2-methyl-1,2,3,4-tetrahydroisoquinolin-4-yl]phenyl}-1H-1,2,3-triazol-1-yl)ethoxy]ethoxy}ethyl)butanediamide hydrochloride]	301
CN1Cc2c(Cl)cc(Cl)cc2[C@H](c2cccc(-c3cn(CCOCCOCCNC(=O)[C@H](O)[C@@H](O)C(=O)NCCOCCOCCn4cc(-c5cccc([C@@H]6CN(C)Cc7c(Cl)cc(Cl)cc76)c5)nn4)nn3)c2)C1 [Example 6-6, (2R,3R)—N,N′-Bis(2-{2-[2-(4-{3-[(4S)-6,8-dichloro-2-methyl-1,2,3,4-tetrahydroisoquinolin-4-yl]phenyl}-1H-1,2,3-triazol-1-yl)ethoxy]ethoxy}ethyl)-2,3-dihydroxybutanediamide hydrochloride]	75
CN1Cc2c(Cl)cc(Cl)cc2[C@H](c2cccc(-c3cn(CCOCCOCCNC(=O)[C@@H](O)[C@H](O)[C@H](O)[C@@H](O)C(=O)NCCOCCOCCn4cc(-c5cccc([C@@H]6CN(C)Cc7c(Cl)cc(Cl)cc76)c5)nn4)nn3)c2)C1 [Example 6-7, (2R,3S,4R,5S)—N,N′-Bis(2-{2-[2-(4-{3-[(4S)-6,8-dichloro-2-methyl-1,2,3,4-tetrahydroisoquinolin-4-yl]phenyl}-1H-1,2,3-triazol-1-yl)ethoxy]ethoxy}ethyl)-2,3,4,5-tetrahydroxyhexanediamide hydrochloride]	1.1
CN1Cc2c(Cl)cc(Cl)cc2[C@H](c2cccc(-c3cn(CCOCCOCCOCCNC(=O)NCCNC(=O)NCCNC(=O)NCCOCCOCCOCCn4cc(-c5cccc([C@@H]6CN(C)Cc7c(Cl)cc(Cl)cc76)c5)nn4)nn3)c2)C1 [Example 6-13, 1,1′-[Carbonylbis(iminoethane-2,1-diyl)]bis {3-[2-(2-{2-[2-(4-{3-[(4S)-6,8-dichloro-2-methyl-1,2,3,4-tetrahydroisoquinolin-4-yl]phenyl}-1H-1,2,3-triazol-1-yl)ethoxy]ethoxy}ethoxy)ethyl]urea}hydrochloride]	2.1
CN1Cc2c(Cl)cc(Cl)cc2[C@H](c2cccc(-c3cc(OCCOCCOCCNC(=O)Nc4ccc(NC(=O)NCCOCCOCCOc5cc(-c6cccc([C@@H]7CN(C)Cc8c(Cl)cc(Cl)cc87)c6)ncn5)cc4)ncn3)c2)C1 [Example 7-11, 1,1′-Benzene-1,4-diylbis {3-[2-(2-(2-{2-[(6-{3-[(4S)-6,8-dichloro-2-methyl-1,2,3,4-tetrahydroisoquinolin-4-yl]phenyl}pyrimidin-4-yl)oxy]ethoxy}ethoxy)ethyl]urea} trifluoroacetate]	33.5

Further lines, results first:

IC50 [nM]	Compound
2.2	CN1Cc2c(Cl)cc(Cl)cc2[C@H](c2cccc(-c3cn(CCOCCOCCOCCOCCNC(=O)NCCCCNC(=O)NCCOCCOCCOCCOCCn4cc(-c5cccc([C@@H]6CN(C)Cc7c(Cl)cc(Cl)cc76)c5)nn4)nn3)c2)C1 [Example 7-1, 1,1′-Butane-1,4-diylbis {3-[14-(4-{3-[(4S)-6,8-dichloro-2-methyl-1,2,3,4-tetrahydroisoquinolin-4-yl]phenyl}-1H-1,2,3-triazol-1-yl)-3,6,9,12-tetraoxatetradec-1-yl]urea}hydrochloride]
11	CN1Cc2c(Cl)cc(Cl)cc2[C@H](c2cccc(-c3cnc(NCCOCCOCCNC(=O)NCCCCNC(=O)NCCOCCOCCNc4ncc(-c5cccc([C@@H]6CN(C)Cc7c(Cl)cc(Cl)cc76)c5)cn4)nc3)c2)C1 [Example 7-3, 1,1′-Butane-1,4-diylbis {3-[2-(2-{2-[(5-{3-[(4S)-6,8-dichloro-2-methyl-1,2,3,4-tetrahydroisoquinolin-4-yl]phenyl}pyrimidin-2-yl)amino]ethoxy}ethoxy)ethyl]urea}hydrochloride]
6.8	CN1Cc2c(Cl)cc(Cl)cc2[C@H](c2cccc(-c3ccc(NCCOCCOCCNC(=O)NCCCCNC(=O)NCCOCCOCCNc4ccc(-c5cccc([C@@H]6CN(C)Cc7c(Cl)cc(Cl)cc76)c5)cn4)nc3)c2)C1 [Example 7-7, 1,1′-Butane-1,4-diylbis {3-[2-(2-{2-[(5-{3-[(4S)-6,8-dichloro-2-methyl-1,2,3,4-tetrahydroisoquinolin-4-yl]phenyl}pyridin-2-yl)amino]ethoxy}ethoxy)ethyl]urea}]
1080	CN1Cc2c(Cl)cc(Cl)cc2[C@H](c2cccc(-c3ccc(NCCOCCOCCNC(=O)Nc4ccc(NC(=O)NCCOCCOCCNc5ccc(-c6cccc([C@@H]7CN(C)Cc8c(Cl)cc(Cl)cc87)c6)cn5)cc4)nc3)c2)C1 [Example 7-8, 1,1′-Benzene-1,4-diylbis{3-[2-(2-{2-[(5-{3-[(4S)-6,8-dichloro-2-methyl-1,2,3,4-tetrahydroisoquinolin-4-yl]phenyl}pyridin-2-yl)amino]ethoxy}ethoxy)ethyl]urea}]
7.5	CN1Cc2c(Cl)cc(Cl)cc2[C@H](c2cccc(-c3cc(OCCOCCOCCNC(=O)NCCCCNC(=O)NCCOCCOCCOc4cc(-c5cccc([C@@H]6CN(C)Cc7c(Cl)cc(Cl)cc76)c5)ncn4)ncn3)c2)C1 [Example 7-12, 1,1′-Butane-1,4-diylbis {3-[2-(2-{2-[(6-{3-[(4S)-6,8-dichloro-2-methyl-1,2,3,4-tetrahydroisoquinolin-4-yl]phenyl}pyrimidin-4-yl)oxy]ethoxy}ethoxy)ethyl]urea} tetrahydrochloride]
